One experiment has as its target GST-Bcl-xL (Homo sapiens, UniProt Q07817). The settings on record: read-out: TR-FRET binding Bcl-xL Ki. In general terms: Time-resolved FRET reads energy transfer from a long-lived donor to a nearby acceptor.
The subject of experiment [1] is mouse FL5.12 cells transfected with Bcl-XL. In words: FL5.12 cellular assay (cell viability, CellTiter-Glo).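 Note: each EC50 determination derived from duplicate measurements.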 Format: cell-based. As to conditions: FL5.12 cells transfected with Bcl-XL, IL-3-depleted, 3% FBS assay media, 24 hours, CellTiter-Glo, read-out: FL5.12 Bcl-xL, - IL3, EC 50.

SMILES strings stand for the structures. Read-outs that look alike come from different tables or passages of the source.

As usually defined, the Ki is the equilibrium dissociation constant of an inhibitor or competing ligand from its target.

GST-Bcl-xL, sequence (Q07817 whole entry): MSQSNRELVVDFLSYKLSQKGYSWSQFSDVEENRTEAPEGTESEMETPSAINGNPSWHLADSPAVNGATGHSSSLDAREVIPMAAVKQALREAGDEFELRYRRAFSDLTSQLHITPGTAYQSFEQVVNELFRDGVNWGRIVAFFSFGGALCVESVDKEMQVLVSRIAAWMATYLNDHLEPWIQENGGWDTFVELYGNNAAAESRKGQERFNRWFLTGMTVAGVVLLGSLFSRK

`CN(C)CCOc1ccccc1Cn1cc(-c2ccc(N3CCc4cccc(C(=O)Nc5nc6ccccc6s5)c4C3)nc2C(=O)O)cn1` [Example 40, 6-[8-(1,3-benzothiazol-2-ylcarbamoyl)-3,4-dihydroisoquinolin-2(1H)-yl]-3-(1-{2-[2-(dimethylamino)ethoxy]benzyl}-1H-pyrazol-4-yl)pyridine-2-carboxylic acid]: at GST-Bcl-xL, the Ki turned out to be 16 nM. For the same compound, in experiment [1] (Mus musculus), the EC50 was found to be 570 nM.

On to `COCCC(c1ccccc1)n1cc(-c2ccc(N3CCc4cccc(C(=O)Nc5nc6ccccc6s5)c4C3)nc2C(=O)O)cn1` (centres unmarked) [Example 93, 6-[8-(1,3-benzothiazol-2-ylcarbamoyl)-3,4-dihydroisoquinolin-2(1H)-yl]-3-[1-(3-methoxy-1-phenylpropyl)-1H-pyrazol-4-yl]pyridine-2-carboxylic acid], for which, on GST-Bcl-xL, the Ki came out at 16 nM. Moreover, the EC50 in experiment [1] (Mus musculus) is 295 nM.

Consider `O=C(Nc1nc2ccccc2s1)c1cccc2c1CN(c1ccc(-c3cccc(Cc4ccccc4)c3)c(C(=O)O)n1)CC2` [Example 106, 6-[8-(1,3-benzothiazol-2-ylcarbamoyl)-3,4-dihydroisoquinolin-2(1H)-yl]-3-(3-benzylphenyl)pyridine-2-carboxylic acid], for which, at GST-Bcl-xL, the Ki was found to be 0.1 nM. For the same compound, the EC50 in experiment [1] (Mus musculus) worked out at 234 nM.

On to `N#Cc1nn(Cc2ccccc2)cc1-c1ccc(N2CCc3cccc(C(=O)Nc4nc5ccccc5s4)c3C2)nc1C(=O)O` [Example 27, 6-[8-(1,3-benzothiazol-2-ylcarbamoyl)-3,4-dihydroisoquinolin-2(1H)-yl]-3-(1-benzyl-3-cyano-1H-pyrazol-4-yl)pyridine-2-carboxylic acid], for which the Ki at GST-Bcl-xL was 315 nM. In experiment [1] (Mus musculus), the EC50 was greater than 1000 nM.

For `O=C(Nc1nc2ccccc2s1)c1cccc2c1CN(c1ccc(-c3ccc4c(c3)CCN(Cc3ccccn3)C4)c(C(=O)O)n1)CC2` [Example 136, 6-[8-(1,3-benzothiazol-2-ylcarbamoyl)-3,4-dihydroisoquinolin-2(1H)-yl]-3-[2-(pyridin-2-ylmethyl)-1,2,3,4-tetrahydroisoquinolin-6-yl]pyridine-2-carboxylic acid], the Ki at GST-Bcl-xL is 1.4 nM. The EC50 in experiment [1] (Mus musculus) was greater than 1000 nM.

`COC1(Cn2ncc(-c3ccc(N4CCc5cccc(C(=O)Nc6nc7ccccc7s6)c5C4)nc3C(=O)NS(C)(=O)=O)c2C)CCCC(C)(C)C1` (centres unmarked) [Example 162, N-(1,3-benzothiazol-2-yl)-2-(5-{1-[(1-methoxy-3,3-dimethylcyclohexyl)methyl]-5-methyl-1H-pyrazol-4-yl}-6-[(methylsulfonyl)carbamoyl]pyridin-2-yl)-1,2,3,4-tetrahydroisoquinoline-8-carboxamide]: the Ki at GST-Bcl-xL was less than 0.1 nM. Further, the EC50 in experiment [1] (Mus musculus) worked out at 5 nM.

For the compound `O=C(Nc1nc2ccccc2s1)c1cccc2c1CN(c1ccc(-c3cnn(C4CCc5ccccc54)c3)c(C(=O)O)n1)CC2` (centres unmarked) [Example 37, 6-[8-(1,3-benzothiazol-2-ylcarbamoyl)-3,4-dihydroisoquinolin-2(1H)-yl]-3-[1-(2,3-dihydro-1H-inden-1-yl)-1H-pyrazol-4-yl]pyridine-2-carboxylic acid], the Ki at GST-Bcl-xL came out at 17 nM. Also, the EC50 in experiment [1] (Mus musculus) was found to be 347 nM.

For `O=C(Nc1nc2ccccc2s1)c1cccc2c1CN(c1ccc(-c3cnn(CC4CCCCC4)c3)c(C(=O)O)n1)CC2` [Example 42, 6-[8-(1,3-benzothiazol-2-ylcarbamoyl)-3,4-dihydroisoquinolin-2(1H)-yl]-3-[1-(cyclohexylmethyl)-1H-pyrazol-4-yl]pyridine-2-carboxylic acid], the Ki on GST-Bcl-xL was 2 nM. Moreover, the EC50 in experiment [1] (Mus musculus) turned out to be 233 nM.

For the compound `O=C(Nc1nc2ccccc2s1)c1cccc2c1CN(c1ccc(-c3cnn(Cc4cccc(F)c4F)c3)c(C(=O)O)n1)CC2` [Example 52, 6-[8-(1,3-benzothiazol-2-ylcarbamoyl)-3,4-dihydroisoquinolin-2(1H)-yl]-3-[1-(2,3-difluorobenzyl)-1H-pyrazol-4-yl]pyridine-2-carboxylic acid], on GST-Bcl-xL, the Ki came out at 18 nM. Also, the EC50 in experiment [1] (Mus musculus) amounted to 570 nM.

For `COCCCC(c1ccccc1)n1cc(-c2ccc(N3CCc4cccc(C(=O)Nc5nc6ccccc6s5)c4C3)nc2C(=O)O)cn1` (centres unmarked) [Example 94, 6-[8-(1,3-benzothiazol-2-ylcarbamoyl)-3,4-dihydroisoquinolin-2(1H)-yl]-3-[1-(4-methoxy-1-phenylbutyl)-1H-pyrazol-4-yl]pyridine-2-carboxylic acid], the inhibition constant (Ki) on GST-Bcl-xL came out at 5 nM. Further, in experiment [1] (Mus musculus), the EC50 was 253 nM.

`O=C(Nc1nc2ccccc2s1)c1cccc2c1CN(c1ccc(-c3cnn(-c4ccccc4)c3)c(C(=O)O)n1)CC2` [Example 23, 6-[8-(1,3-benzothiazol-2-ylcarbamoyl)-3,4-dihydroisoquinolin-2(1H)-yl]-3-(1-phenyl-1H-pyrazol-4-yl)pyridine-2-carboxylic acid]: the Ki on GST-Bcl-xL worked out at 182 nM. In experiment [1] (Mus musculus), the EC50 was greater than 1000 nM.

As for `O=C(Nc1nc2cccc(Cl)c2s1)c1cccc2c1CN(c1ccc(-c3cnn(Cc4ccccc4)c3)c(C(=O)O)n1)CC2` [Example 21, 3-(1-benzyl-1H-pyrazol-4-yl)-6-{8-[(7-chloro-1,3-benzothiazol-2-yl)carbamoyl]-3,4-dihydroisoquinolin-2(1H)-yl}pyridine-2-carboxylic acid], on GST-Bcl-xL, the Ki amounted to 183 nM. For the same compound, the EC50 in experiment [1] was greater than 1000 nM.

As to `O=C(Nc1nc2ccccc2s1)c1cccc2c1CN(c1ccc(-c3cnn(Cc4cccnc4)c3)c(C(=O)O)n1)CC2` [Example 3, 6-[8-(1,3-benzothiazol-2-ylcarbamoyl)-3,4-dihydroisoquinolin-2(1H)-yl]-3-[1-(pyridin-3-ylmethyl)-1H-pyrazol-4-yl]pyridine-2-carboxylic acid], the Ki on GST-Bcl-xL is 258 nM. Besides, the EC50 in experiment [1] was greater than 1000 nM.

For `Cc1c(-c2ccc(N3CCc4cccc(C(=O)Nc5nc6ccccc6s5)c4C3)nc2C(=O)O)ccnc1OC1CCCCC1` [Example 138, 6-[8-(1,3-benzothiazol-2-ylcarbamoyl)-3,4-dihydroisoquinolin-2(1H)-yl]-2'-(cyclohexyloxy)-3'-methyl-3,4'-bipyridine-2-carboxylic acid], the Ki on GST-Bcl-xL is less than 0.1 nM. The EC50 in experiment [1] (Mus musculus) was greater than 1000 nM.

For the compound `Cc1c(-c2ccc(N3CCc4cccc(C(=O)Nc5nc6ccccc6s5)c4C3)nc2C(=O)O)cc(C#N)n1CC1CCCCC1` [Example 130, 6-[8-(1,3-benzothiazol-2-ylcarbamoyl)-3,4-dihydroisoquinolin-2(1H)-yl]-3-[5-cyano-1-(cyclohexylmethyl)-2-methyl-1H-pyrrol-3-yl]pyridine-2-carboxylic acid], the Ki at GST-Bcl-xL is less than 0.1 nM. In addition, the EC50 in experiment [1] (Mus musculus) amounted to 30 nM.

As to `Cc1c(-c2ccc(N3CCc4cccc(C(=O)Nc5nc6ccccc6s5)c4C3)nc2C(=O)O)cnn1Cc1ccccc1OCCCN1CCOCC1` [Example 81, 6-[8-(1,3-benzothiazol-2-ylcarbamoyl)-3,4-dihydroisoquinolin-2(1H)-yl]-3-(5-methyl-1-{2-[3-(morpholin-4-yl)propoxy]benzyl}-1H-pyrazol-4-yl)pyridine-2-carboxylic acid], the Ki on GST-Bcl-xL was 0.6 nM. Also, the EC50 in experiment [1] (Mus musculus) was found to be 37 nM.

Consider `CC1(C)CCCC(Cn2cc(-c3ccc(N4CCc5cccc(C(=O)Nc6nc7ccccc7s6)c5C4)nc3C(=O)O)cn2)C1` (centres unmarked) [Example 92, 6-[8-(1,3-benzothiazol-2-ylcarbamoyl)-3,4-dihydroisoquinolin-2(1H)-yl]-3-{1-[(3,3-dimethylcyclohexyl)methyl]-1H-pyrazol-4-yl}pyridine-2-carboxylic acid], for which, at GST-Bcl-xL, the Ki was found to be 2 nM. Further, in experiment [1] (Mus musculus), the EC50 came out at 56 nM.

Regarding `O=C(Nc1nc2ccccc2s1)c1cccc2c1CN(c1ccc(-c3cccc(OC4CCCCC4)c3Cl)c(C(=O)O)n1)CC2` [Example 117, 6-[8-(1,3-benzothiazol-2-ylcarbamoyl)-3,4-dihydroisoquinolin-2(1H)-yl]-3-[2-chloro-3-(cyclohexyloxy)phenyl]pyridine-2-carboxylic acid], at GST-Bcl-xL, the Ki is less than 0.1 nM. In addition, the EC50 in experiment [1] (Mus musculus) was 131 nM.

With `COCCC1(Cn2cc(-c3ccc(N4CCc5cccc(C(=O)Nc6nc7ccccc7s6)c5C4)nc3C(=O)O)cn2)CCCCC1` [Example 88, 6-[8-(1,3-benzothiazol-2-ylcarbamoyl)-3,4-dihydroisoquinolin-2(1H)-yl]-3-(1-{[1-(2-methoxyethyl)cyclohexyl]methyl}-1H-pyrazol-4-yl)pyridine-2-carboxylic acid], on GST-Bcl-xL, the Ki amounted to 3 nM. Besides, the EC50 in experiment [1] (Mus musculus) turned out to be 229 nM.

`Cc1c(-c2ccc(N3CCc4cccc(C(=O)Nc5nc6ccccc6s5)c4C3)nc2C(=O)O)cnn1CC1CCCCO1` (centres unmarked) [Example 154, 6-[8-(1,3-benzothiazol-2-ylcarbamoyl)-3,4-dihydroisoquinolin-2(1H)-yl]-3-[5-methyl-1-(tetrahydro-2H-pyran-2-ylmethyl)-1H-pyrazol-4-yl]pyridine-2-carboxylic acid]: at GST-Bcl-xL, the Ki is less than 0.1 nM. In experiment [1] (Mus musculus), the EC50 is 15 nM.

`CS(=O)(=O)c1cccc(Cn2cc(-c3ccc(N4CCc5cccc(C(=O)Nc6nc7ccccc7s6)c5C4)nc3C(=O)O)cn2)c1` [Example 69, 6-[8-(1,3-benzothiazol-2-ylcarbamoyl)-3,4-dihydroisoquinolin-2(1H)-yl]-3-{1-[3-(methylsulfonyl)benzyl]-1H-pyrazol-4-yl}pyridine-2-carboxylic acid]: the Ki on GST-Bcl-xL is 91 nM. Also, the EC50 in experiment [1] (Mus musculus) is greater than 1000 nM.

For the compound `CN(C)CCOc1cccc(Cn2cc(-c3ccc(N4CCc5cccc(C(=O)Nc6nc7ccccc7s6)c5C4)nc3C(=O)O)cn2)c1` [Example 18, 6-[8-(1,3-benzothiazol-2-ylcarbamoyl)-3,4-dihydroisoquinolin-2(1H)-yl]-3-(1-{3-[2-(dimethylamino)ethoxy]benzyl}-1H-pyrazol-4-yl)pyridine-2-carboxylic acid], the Ki at GST-Bcl-xL stood at 38 nM. Further, in experiment [1] (Mus musculus), the EC50 is 621 nM.

The values are drawn from EP2768830B1, “APOPTOSIS-INDUCING AGENTS FOR THE TREATMENT OF CANCER AND IMMUNE AND AUTOIMMUNE DISEASES” (AbbVie Inc., priority 2011, dated 2013).
